Data on 62 molecules can be found in a melting point compilation (Tetko et al.; mined from patent text by program, amines drawn as free bases though some values may be those of a salt).

Structures are written as SMILES. A value given as a limit tells only on which side of the number the result lay.

As for `Cc1cc(OCc2ccccc2F)c2cccc(O)c2n1`, the melting point is 124 to 125 °C.

The molecule `COC(=O)c1ccc(C(=S)Nc2ccccc2OC)cc1` gave a melting point of 105 to 107 °C.

`O=c1[nH]c2ccccc2n1CC1CCCN(CC(O)C2COc3ccccc3O2)C1` (configuration not stated) gave a melting point of 154 °C.

`Cc1oc(-c2ccccc2)nc1CCc1ccc(CO)cc1` yielded a melting point of 103 to 104 °C.

Molecule `COC(=O)c1cc(OCc2cn(-c3ccc(C(F)(F)F)cn3)nc2C)nn1C` had a melting point of 130 to 131 °C.

Molecule `N#CCc1cccc2c1CCN=C2c1ccc([N+](=O)[O-])cc1` showed a melting point of 138 to 139 °C.

`COc1ccncc1-c1cncc(OC2SCC(O)C(O)C2O)c1` (configuration not stated) displayed a melting point of 154 °C.

`Cc1cc(F)c(NS(=O)(=O)c2ccccc2)cc1NS(=O)(=O)c1ccccc1` had a melting point of 146 °C.

With `C#CCn1c(-c2cccc(C=O)c2)nc(CC)c(CC)c1=O`, the melting point was 82 to 86 °C.

Consider `COc1ccc(CCOc2ccnc(-c3cccc(C(=O)O)c3)c2)cc1OC`, for which the melting point is 194 to 195 °C.

In the case of `COc1cc(C)c(NS(C)(=O)=O)cc1C(=O)NCC(Cl)CCCCl` (configuration not stated), the melting point turned out to be 132 °C.

Molecule `O=c1nc(NC(=S)Nc2ccccc2)c(F)cn1S(=O)(=O)c1ccccc1` returned a melting point of 205 to 208 °C.

In the case of `C=CCOc1cc(C=O)ccc1O`, the melting point lay within 66 to 67 °C.

The molecule `NC(=O)c1ccc2c(c1)CCCN2CCN1CC=C(c2c[nH]c3cc(F)ccc23)CC1` displayed a melting point of 130 to 133 °C.

Take `CCOC(=O)c1ccc(/C=C/c2c(C)cc3c(c2OC)C(C)(C)CCC3(C)C)cc1`: the melting point was 123 °C.

`Cc1ccc(Br)c(S(=O)(=O)C(F)(F)F)c1` showed a melting point of 69 °C.

With `CSc1ccc(-n2c(-c3ccc(F)cc3)nc(SC)c(C#N)c2=O)cc1`, the melting point is 204 to 207 °C.

For the molecule `CC(C)[C@H](NC(=O)OCc1ccccn1)C(=O)N[C@@H](Cc1ccccc1)[C@@H](O)[C@H](O)[C@H](Cc1ccccc1)NC(=O)[C@@H](NC(=O)OCc1ccccn1)C(C)C`, the melting point was in the range of 220 to 223 °C.

Molecule `C=CCc1c(C)nc(C)nc1NCc1ccc(-c2ccccc2-c2nnn[nH]2)cc1` came in with a melting point of 259 to 260 °C.

`COc1ccc(C(=O)Nc2ccc(Cl)c(Cl)c2)cc1N`: the melting point fell in the range of 179 to 182 °C.

In turn, `Cc1nn(-c2ccccn2)c(=O)cc1-c1ccc(O)cc1` displayed a melting point of 252 to 254 °C.

`CCOC(=O)/C=C/c1c(-c2ccccc2)c2cc(C)c(C)cc2c(=O)n1C` came in with a melting point of 143 to 145 °C.

The molecule `COC(=O)c1cn2c(NCCCCCCNS(=O)(=O)c3ccccc3[N+](=O)[O-])nsc2n1` came in with a melting point of 148 to 149 °C.

Molecule `COC(=O)Cc1ccc(OC[C@@H](C)NC[C@H](O)c2ccccc2)cc1` registered a melting point of 69 to 70 °C.

The molecule `CONS(=O)(=O)c1cccc(C(F)(F)F)c1` displayed a melting point of 78 to 81 °C.

Molecule `CC1C(=O)Nc2c(C(=O)c3ccc(Br)cc3)cccc21` (configuration not stated) registered a melting point of 245 to 247 °C.

As for `COc1c(C2CCN(CCCCNC(=O)c3ccc(-c4ccc(NS(=O)(=O)CC(F)(F)F)cc4)cc3)CC2)ccc2c1CCCC2`, the melting point fell in the range of 182 to 184 °C.

Molecule `Cc1nc(N2CCN(CC(C)C)C2=O)sc1C(=O)NCc1ccncc1` showed a melting point of 185 to 187 °C.

With `Nc1cccc(-c2nc3sccn3c2-c2ccnc(N[C@@H]3CCCN(S(=O)(=O)c4ccc(Cl)cc4)C3)n2)c1`, the melting point is 226 to 228 °C.

Molecule `COc1ccc2cccc(C(CO)CNC(=O)C3CC3)c2c1` (configuration not stated) registered a melting point of 153 to 154 °C.

Turning to `CN(C(=O)Nc1ccc2ccccc2c1)c1cccc(-c2ccc(CCC(=O)O)cc2)c1`, the melting point was 170 to 171 °C.

As for `COC1=CC(C=O)(NC(c2ccccc2)(c2ccccc2)c2ccccc2)NC=C1` (configuration not stated), the melting point was determined as 172 °C.

Turning to `COc1cc(OC)c(-c2cccs2)cc1/C=C/C(=O)c1ccc(S(=O)(=O)Nc2ccc(C(F)(F)F)cn2)cc1`, the melting point was in the range of 228 to 229 °C.

Consider `Cc1ccc(-c2ccc(NC(=O)OC(C)(C)C)c([N+](=O)[O-])c2)cc1`, for which the melting point is 105 to 108 °C.

Turning to `Cc1cc(/C=C/C(=O)O)c(C)n1-c1ccc(C(=O)N(C)C)cc1`, the melting point is 182 to 184 °C.

Turning to `CC(=C1SCCCS1)c1ccc(Oc2ccc(O)cc2)cc1`, the melting point stood at 84.5 °C.

Molecule `Cc1cccc(-c2cccc(CBr)n2)n1` came in with a melting point of 88 °C.

For the molecule `CCCCC(=O)N(Cc1ccc(OC(F)(F)F)cc1)c1cc(Cl)cc(-c2nnn[nH]2)c1`, the melting point lay in the range of 177 to 180 °C.

Regarding `Cc1nc(NC(=O)c2ccccc2)sc1C(=O)n1ccnc1`, the melting point is 228 to 231 °C.

As to `Oc1cccc2oc(Cc3cccc(C(F)(F)F)c3)nc12`, the melting point lay within 157 to 158 °C.

`N#CNC(=S)Nc1ccccc1`: the melting point was > 250 °C.

`CCc1ccc(-n2c(-c3ccc(SC)cc3)nc(SC)c(C#N)c2=O)cc1`: the melting point lay in the range of 223 to 225 °C.

`c1cc2c(cc1C1CCC3(CC1)OCCO3)OCO2` returned a melting point of 115 to 116 °C.

With `COc1ccccc1CN[C@H]1CCCN[C@H]1c1cc(Br)cc(Br)c1` (relative stereo), the melting point was > 240 °C.

Molecule `COC(=O)c1c(C)c(OC)cc(OC)c1C=O` yielded a melting point of 164 to 165 °C.

With `CCOc1cc(C(=CC#N)c2ccc(OC)c(-n3cccc3)c2)ccc1OC`, the melting point was 109 to 111 °C.

In turn, `C[C@H]1C(=O)C[C@@H]2C[C@H]1OO[C@]2(C)/C=C\c1cc(C(F)(F)F)nc2cc(C(F)(F)F)ccc12` registered a melting point of 160 °C.

As to `CCCCc1ncc(/C=C(\Cc2cccs2)C(=O)O)n1Cc1ccccc1Cl`, the melting point fell in the range of 175 to 177 °C.

With `N#Cc1nn(-c2c(Cl)cc(C(F)(F)F)cc2Cl)c(NCc2cnccn2)c1S(=O)C(F)(F)F` (configuration not stated), the melting point is 169 °C.

In turn, `Cc1cc(C=CC#N)c(Cl)cc1F` displayed a melting point of 90 to 91 °C.

In the case of `CCCN1C(=O)C2(c3ccc([N+](=O)[O-])cc3)CC(c3ccc([N+](=O)[O-])cc3)(C2)C1=O`, the melting point lay within 237 to 238 °C.

`C[Si](C)(C)C#Cc1ccc(C=CC2=CC(c3ccc(C#C[Si](C)(C)C)cc3)N(c3ccccc3)N2)cc1` (configuration not stated) came in with a melting point of 128 to 130 °C.

On to `CON=C(C)C1=CCCN(O)C1`, for which the melting point was in the range of 94 to 96 °C.

The molecule `COCc1cnn2c(-c3cccc(C(F)(F)F)c3)ccnc12` came in with a melting point of 114 to 116 °C.

For the molecule `CC(C)(NC(=O)CCn1cnc(C=O)c1)c1ccc(Cl)c(Cl)c1`, the melting point was in the range of 161 to 163 °C.

`Clc1cccc(N2CCN(Cc3cn4cc(Cl)ccc4n3)CC2)c1` registered a melting point of 148 to 149 °C.

Regarding `O=C1NC(=Cc2cccc(Cl)c2)C(=O)C1=NO`, the melting point stood at 185 °C.

Consider `N#Cc1ccc2[nH]c(-c3ccc(Cl)c(Cl)c3)c(CCCC(=O)O)c2c1`, for which the melting point fell in the range of 190 to 195 °C.

On to `O=C(O)CCCC/C=C(/c1ccc(-c2nc(C(=O)NCCCCC3CCCCC3)co2)cc1)c1cccnc1`, for which the melting point fell in the range of 52 to 56 °C.

With `COc1nc2cc(Cl)c(Cl)c(-c3nnnn3CCCO)c2nc1OC`, the melting point is 188 to 189 °C.

For `N#CC(CC(=O)CCl)(c1ccccc1)c1ccccc1`, the melting point was in the range of 102 to 104 °C.

The molecule `[N-]=[N+]=NCC(=O)Nc1ccc(S(=O)(=O)c2ccc(F)cc2)cc1` gave a melting point of 181 to 184 °C.

By melting point is commonly meant the temperature of the solid-liquid transition.
